# According to a melting point compilation (Tetko et al.; mined from patent text by program, amines drawn as free bases though some values may be those of a salt):
row,Compound,melting point
1,CCOC(=O)c1noc(C2CC2)c1C(=O)c1ccc(Br)cc1CSC,42 to 43 °C
2,CN=C1SCN(C(C)(C)C)C(=O)N1C,51 to 52 °C
3,Cc1c(CCC(=O)O)c2cc(Cl)ccc2n1Cc1ccc(Br)cc1,154 to 155 °C
4,O=Cc1ccccc1-c1ccc(C(=O)Nc2ccc3cccnc3c2)cc1,258 to 260 °C
5,CC(=O)C1(Nc2ccccc2)CCN(C(C)C)CC1,107 °C
6,COc1cc2c(cc1OC)/C(=N/OCc1ccc([N+](=O)[O-])cc1)CCC2,124 to 127 °C
7,CCCc1nc(C(O)CCC)c(C)[nH]1 (stereo not given),169 to 171 °C
8,CC1=C(C(=O)NN)C(c2ccccc2Cl)c2c[nH]nc2N1 (stereo not given),220 °C
9,OC(c1ccc(Br)cc1)c1ccc(Br)cc1,112 to 113 °C
10,c1csc(C2NCCNCc3ccccc32)c1 (stereo not given),148 °C
11,Cc1cc(NC(=O)C(C)(O)COc2ccc(CCCCl)cc2)ccc1[N+](=O)[O-] (stereo not given),110 to 112 °C
12,CCCCCc1c(OCc2ccccc2)ccc(C(C)=O)c1O,61 to 62 °C
13,COc1cc(C(C)N(O)C(N)=O)ccc1OCCc1ccccc1 (stereo not given),112 to 115 °C
14,CC1(C)CC(Nc2nccc3ccccc23)CC(C)(C)N1,133 °C
15,COC1=C(OC)C(=O)C2=C(CCC(CCn3c(=O)ccc4ccccc43)CC2)C1=O,88 to 90 °C
16,c1ccc(-c2cccc(N(c3ccccc3)c3ccc4c(c3)Oc3ccc(N(c5ccccc5)c5cccc(-c6ccccc6)c5)cc3O4)c2)cc1,232 °C
17,O=[N+]([O-])C1=C2N(CC3CCOC3)CCN2C2CCCC1O2 (stereo not given),115 to 117 °C
18,CC1CCc2ccc(O)cc2O1 (stereo not given),94 to 95 °C
19,COc1ccc2c(c1OC)CC[C@@H]1NC(=O)CC[C@H]21 (relative stereo),243 to 245 °C
20,CCCCc1ccc(NCc2ccc(N(C)C)cc2)cc1,60 to 61 °C
21,CCC(CC)(OC)c1ccc(Cl)c2nc3n(c12)CCCN3c1ccc(Cl)cc1Cl,124 to 125 °C
22,CCCC(=O)c1cc2c(=O)c(C(=O)O)c[nH]c2cc1C,249 to 252 °C
23,CCn1nnnc1SCc1c(S(C)(=O)=O)ccc(C(=O)OC2=CC(=O)CCC2)c1Cl,122 to 123 °C
24,COC(=O)CCC(CNC(=O)C(C)(Cc1c[nH]c2ccccc12)NC(=O)OC1C2CC3CC(C2)CC1C3)c1ccccc1 (stereo not given),69 to 76 °C
25,COc1ccc(CN2C(=O)[C@@H](NC(=O)Cc3ccccc3)[C@H]2CN=[N+]=[N-])c(OC)c1 (relative stereo),110 to 111 °C

row,Compound,melting point
1,CCOC(=O)c1cnoc1-c1ccc(Br)cc1,47 to 48 °C
2,CC(C)(C#N)c1c(Cl)cc([N+](=O)[O-])cc1Cl,80 °C
3,CS(=O)(=O)Nc1ccc(OCC2CCNCC2)cc1,180 to 183 °C
4,Cc1nnc(COc2cccc3c2CN(C2CCC(=O)NC2=O)C3=O)o1 (stereo not given),206 to 208 °C
5,CCOC(=O)C1=C(C)NC(C)=C(C(=O)OC)C1c1ccccc1Cl (stereo not given),125 to 127 °C
6,CCC(C)NS(=O)(=O)c1ccc(N)c(C(=O)N2CCN(C)CC2)c1 (stereo not given),130 to 132 °C
7,CNC(=O)c1cc(-c2ccc(OC)cc2)nn(CC=Cc2ccc(Cl)cc2)c1=O,184 to 185 °C
8,O=C(O)C(=O)c1ccc(O)c(Cl)c1,116 to 117 °C
9,CCCCCCCCCCCCCCCCOc1cc(NS(=O)(=O)c2cc(N)ccc2OCCOC)c(O)cc1C,142 to 144 °C
10,CCCCCn1c(C#N)ccc1-c1ccc2c(c1)C(C)(C)OC(=O)N2,128 to 131 °C
11,O=[N+]([O-])c1cc(CCl)ccc1OCc1ccccc1,60 to 61 °C
12,CCCn1cc2c(C3C(=O)Nc4ccc(Br)cc43)nc(NCC(C)N)nc2n1 (stereo not given),247 to 250 °C
13,Clc1cc(N2CCOCC2)nc(-n2cnc3ccccc32)n1,178 to 181 °C
14,CC(=O)C(=Cc1cccc([N+](=O)[O-])c1)C(=O)OC(C)CCl (stereo not given),95 to 96 °C
15,CSc1ccc(C(O)c2occc(=O)c2OCc2ccccc2)cc1 (stereo not given),82 to 82.5 °C
16,COc1cc2c(cc1N1CCN(CC3=CC4=CSCC4=C3)CC1)OCC2,156 to 158 °C
17,COc1ccc2c(c1)c(OC(C)C)c(C(N)=O)n2-c1ccccc1,152 to 154 °C
18,Cc1nn(-c2ccccn2)c2c1C(=NO)CC(C)(C)C2Br (stereo not given),195 to 196 °C
19,CNC(=O)ON=C1Oc2ccccc2OC1(C)C,174 to 176 °C
20,CN(C)C=NS(=O)(=O)c1cc(CCNC(=O)C(F)(F)F)ccc1OCc1ccccc1,103 °C
21,CC1(C)CC(=O)N(c2ccc(OC(=O)N3CCc4ccccc4C3)nc2)C(=O)C1,156 to 158 °C
22,CC(=O)c1ccc(Nc2nc(N)c(C(=O)c3sccc3C)s2)cc1,171 to 172 °C
23,OCCNc1cc(Nc2ccc(Oc3ccccc3)cc2)ncn1,154 to 156 °C
24,CON(C)C(=O)/C=C/c1c(C2CC2)nc2ccccc2c1-c1ccc(F)cc1,141 °C
25,CCC(=O)NC[C@H]1CN(c2ccc3c(c2)C[C@@H](C)N3C(=O)OCc2ccccc2)C(=O)O1,181 to 183 °C
